These are literature values, as cited in US8586590B2, “Compounds” (GlaxoSmithKline Intellectual Property Development Limited, priority 2009, dated 2013).

The test system of one data set is neutrophils. The following applies: treatment of neutrophils; Thelen et al. 1994.

Structures are written as SMILES.

Turning to `O=c1cc(N2CCOCC2)oc2c(-c3ccccc3)cccc12` [LY294002], in the data set on neutrophil, the neutrophil migration entry is reported as “block” and the superoxide release entry is listed as “block”. Moreover, in the data set with phospholipases, the “inhibitory activity on phospholipases” value is reported as “some inhibitory activity”.
`COC[C@H]1OC(=O)c2coc3c2[C@@]1(C)C1=C(C3=O)[C@@H]2CCC(=O)[C@@]2(C)C[C@H]1OC(C)=O` [wortmannin]: the “fMLP-induced respiratory burst response” value in the data set with neutrophils was “prevents the fMLP-induced respiratory burst response”. Besides, in the data set on neutrophil, the neutrophil migration result is “block” and the superoxide release entry is “block”.
